Structures are written as SMILES. Counter-ions that a name gives are not always drawn.

human cloned 5-HT6 receptors, sequence (P50406 whole entry): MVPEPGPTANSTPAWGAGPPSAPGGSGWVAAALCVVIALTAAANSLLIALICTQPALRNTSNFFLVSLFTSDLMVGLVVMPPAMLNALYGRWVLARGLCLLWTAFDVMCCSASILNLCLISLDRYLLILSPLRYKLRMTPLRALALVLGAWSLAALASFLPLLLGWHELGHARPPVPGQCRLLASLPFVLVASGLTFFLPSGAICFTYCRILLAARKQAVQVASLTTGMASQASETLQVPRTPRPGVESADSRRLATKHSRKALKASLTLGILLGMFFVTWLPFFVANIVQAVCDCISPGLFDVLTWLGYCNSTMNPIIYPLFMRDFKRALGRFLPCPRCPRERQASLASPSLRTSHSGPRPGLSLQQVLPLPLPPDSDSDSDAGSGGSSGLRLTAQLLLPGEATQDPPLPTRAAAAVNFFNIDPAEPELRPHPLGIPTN

Tested on in one series: not given
Experiment: not given
Conditions: not given
The term melting point denotes the temperature of the solid-liquid transition. As to `C[C@H]1CN(c2cccc3cc(S(=O)(=O)c4ccccc4)cnc23)CCN1` (as salt: hydrochloride) [Example E13, (S)-8-(3-Methyl)piperazin-1-yl-3-phenylsulfonylquinoline hydrochloride], the melting point was 266 to 269 °C (dec.).

The next series concerns the target human cloned 5-HT6 receptors (Homo sapiens, UniProt P50406). The experiment in a line: affinity for the 5-HT6 receptor (procedures outlined in WO98/27081). It is filed as binding.
Conditions: not given
On to `O=S(=O)(c1ccccc1)c1cnc2c(N3CCNCC3)c(Cl)ccc2c1` [Example E10, 7-Chloro-3-phenylsulfonyl-8-piperazin-1-yl-quinoline hydrochloride], for which the Ki was under 10 nM.

The series is the same for the next values; noted with them: human cloned 5-HT6 receptors; read-out: pKi values at human cloned 5-HT6 receptors (converted).
Regarding `CN1CCN(c2cccc3cc(S(=O)(=O)c4ccccc4)cnc23)CC1` [Example E1, 8-(4-Methyl-piperazin-1-yl)-3-phenylsulfonylquinoline], the Ki is under 10 nM.
For the compound `C[C@@H]1CN(c2cccc3cc(S(=O)(=O)c4ccccc4)cnc23)CCN1` [Example E12, (R)-8-(3-Methyl)piperazin-1-yl-3-phenylsulfonylquinoline hydrochloride], the Ki was under 10 nM.
Consider `O=S(=O)(c1cccc(Cl)c1)c1cnc2c(N3CCNCC3)cccc2c1` [Example E4, 3-(3-Chloro)phenylsulfonyl-8-piperazin-1-yl-quinoline hydrochloride], for which the Ki is under 10 nM.
On the same count and under the same terms, in the case of `O=S(=O)(c1cnc2c(N3CCNCC3)cccc2c1)c1ccccc1F` [Example E5, 3-(2-Fluoro)phenylsulfonyl-8-piperazin-1-yl-quinoline hydrochloride] it was under 10 nM.
In the case of `O=S(=O)(c1cccc(F)c1)c1cnc2c(N3CCNCC3)cccc2c1` [Example E7, 3-(3-Fluoro)phenylsulfonyl-8-piperazin-1-yl-quinoline hydrochloride], the Ki is under 10 nM.
As to `O=S(=O)(c1cnc2c(N3CCNCC3)cccc2c1)c1ccc(Br)cc1OC(F)(F)F` [Example E8, 3-(4-Bromo-2-trifluoromethoxy)phenylsulfonyl-8-piperazin-1-yl-quinoline hydrochloride], the Ki was under 10 nM.
Consider `O=S(=O)(c1ccccc1)c1cnc2c(N3CCN4CCCC4C3)cccc2c1` (centres unmarked) [Example E37], for which the Ki is under 10 nM.
In the case of `C[C@H]1CN(c2cccc3cc(S(=O)(=O)c4ccccc4)cnc23)CCN1` [Example E13, (S)-8-(3-Methyl)piperazin-1-yl-3-phenylsulfonylquinoline hydrochloride], the Ki is under 10 nM.
Consider `O=S(=O)(c1ccccc1)c1cnc2c(N3C[C@@H]4C[C@H]3CN4)cccc2c1` [Example E43, 3-Phenylsulfonyl 8-({1S, 4S}2,5-diazabicyclo[2.2.1]heptan-2-yl) quinoline hydrochloride], for which the Ki was under 10 nM.
As for `Cc1cc(N2CCNCC2)c2ncc(S(=O)(=O)c3ccccc3)cc2c1` [Example E11, 6-Methyl-3-phenylsulfonyl-8-piperazin-1-yl-quinoline hydrochloride], the Ki was under 10 nM.
On to `O=S(=O)(c1cccc(C(F)(F)F)c1)c1cnc2c(N3CCNCC3)cccc2c1` [Example E9, 8-Piperazin-1-yl-3-(3-trifluoromethyl)phenylsulfonylquinoline hydrochloride], for which the Ki was under 10 nM.
On to `CCN1CCN(c2cccc3cc(S(=O)(=O)c4ccccc4)cnc23)CC1` [Example E17, 8-(4-Ethyl-piperazin-1-yl)-3-phenylsulfonylquinoline hydrochloride], for which the Ki is under 10 nM.
In the case of `O=S(=O)(c1ccccc1)c1cnc2c(N3CCCNCC3)cccc2c1` [Example E14, 8-Homopiperazin-1-yl-3-phenylsulfonylquinoline hydrochloride], the Ki was under 10 nM.
Turning to `O=S(=O)(c1cnc2c(N3CCNCC3)cccc2c1)c1ccccc1Cl` [Example E3, 3-(2-Chloro)phenylsulfonyl-8-piperazin-1-yl-quinoline hydrochloride], the Ki was under 10 nM.
Still for that read-out and setting: the same measure for `O=S(=O)(c1ccc(Cl)cc1)c1cnc2c(N3CCNCC3)cccc2c1` [Example E6, 3-(4-Chloro)phenylsulfonyl-8-piperazin-1-yl-quinoline hydrochloride]: under 10 nM.

(Values after patent publication US8236947B2, “Quinoline derivatives and their use as 5-HT6 ligands” (Glaxo Group Limited, priority 2002, dated 2012).)
